Reference: US6399568B1, “Cyclic tetrapeptide derivatives and medicinal use thereof” (Japan Energy Corporation, priority 1997, dated 2002)
Non-standard residues stand in square brackets, D forms with d. Residues, ends and D or L forms follow the SMILES beside them. *: point of attachment. Asu = N[C@@H](CCCCCC(=O)O)C(=O)O; Aib = CC(C)(N)C(=O)O; NHOH = ON*

Experiments:
[1] = system: B16/BL6 cells; assay: MHC class-I molecule expression promoting activity; assay type: cell-based, mouse; settings: for MHC class-I molecule expression promoting action: FIGS. 3 and 4, dependence on concentration of addition; for Twice Promoting Concentration Cx2: concentration at which MHC class-I expression is twice that without addition; for Twice Promoting Concentration Cx2 / conc. for 2-fold expression (nM) mean: 72 hours; for conc. for 2-fold expression (nM) mean: mean of a plurality of assays
[2] = system: mouse malignant melanoma B16 cell line; assay: Cell proliferation inhibition (72 hours); assay type: cell-based; settings: read-out: 50% proliferation inhibiting concentration B16 (nM) mean
Text: (§1) In order to verify the action of the cyclic tetrapeptide derivative according to the present invention in inhibiting cell proliferation in cancerized cells, the action on the proliferation of the aforementioned B16/BL6 cells was investigated. The evaluation of cell proliferation rates was done utilizing a commercially available measuring kit, specifically, from Promega under the trade name CellTiter 96 Aqueous Non-Radioactive Proliferation Assay Kit. In the measuring kit, the amount of products through reduction of a reagent tetrazolium compound (3-(4,5-dimethylthiazol-2-yl)-5-(3-carboxymethoxyphenyl)-2-(4-sulfophenyl)-2H-tetrazolium, inner salt; MTS) by viable animal cells is determined by detecting spectrophotometrically the color generated from the products. Since the amount of products is proportional to the amount of viable cells, this kit is utilized to evaluate the amount of viable cells.
(§2) According to the procedure of Test Example 1, B16/BL6 cells are inoculated in a 96 well microplate and cultured for 24 hours. Then, 10 μl of a solution of the source solution of a compound to be tested which has been diluted to a predetermined amount per well is added. Thereafter, culture is continued for additional 48 hours and 20 μl of a reagent solution in the aforementioned CellTiter 96 Aqueous Non-Radioactive Proliferation Assay Kit is then added. After incubation is continued at 37° C. for 1 hour, the amount of color generation is measured as an absorbance at 490 n musing a microplate reader.
(§3) The amount of cell proliferation of a group to which a compound to be tested is added is expressed in a relative value as compared to the standard cell proliferation (100%) in a control group to which no compound to be tested is added. For each compound tested, the amounts of cell proliferation were measured at different concentrations of addition and the dependence of the quantitative cell proliferation on the concentration of addition was investigated. From the results, a concentration of addition at which the amount of cell proliferation was inhibited by 50% relative to the amount of cell proliferation in the control group without addition was determined.
(§4) The test method was in accordance with the above-mentioned procedure, except that the period of incubation after the addition of a compound was 72 hours.
(§5) As illustrative examples, results are shown for an evaluation using mouse malignant melanoma B16/BL6 and B16 cell lines; leukemia L1210 cell line, colon cancer Colon26 cell line, and liver cancer MH134 cell line as cancer cells. For the cell proliferation inhibiting action of each compound tested for these cancer cells, 50% proliferation inhibiting concentrations are shown in Table 4.

[3] = system: B16/BL6 cells; assay: Inhibitory effect on histone deacetylation in cells (AUT gel electrophoresis); assay type: cell-based, mouse; settings: Example 1 added at 10 μM, trichostatin A at 1 μM; 6 hours; histone H4 bands
Experimental: In a culture flask of 75 ml in capacity, 1.5×10^5 B16/BL6 cells were inoculated and preliminarily cultured for 4 days. Then, a given amount of a compound to be tested was added and subsequently cultured for 6 hours. Thereafter, cells were striped using 0.25% trypsin enzyme solution, washed once with PBS and stored temporarily at −80° C.
From this cell sample, histone was separated from chromatin and collected together with other proteins in a conventional manner. The resulting protein sample was subjected to AUTgel electrophoresis in an amount of 1 μg/lane. Said gel was stained with silver to detect bands separated by the migration.
The result on a control group in which no compound to be tested was added is also shown.

[4] = target: histone deacetylase; assay: Histone deacetylase enzyme inhibiting activity, synthetic peptide substrate; assay type: biochemical, mouse; settings: enzyme from B16/BL6 cells; [3H]acetylated histone H4 peptide; 37° C. 3 hours
Experimental: The preparation of histone deacetylase was performed essentially according to the method of Yoshida et al. (J. Biol. Chem., 265,17174-17179, 1990). The enzyme to be used was partially purified from B16/BL6 cells. The cells were suspended in HDA buffer (15 mM potassium phosphate, 5% glycerol, 0.2 mM EDTA, […], pH 7.5), homogenized and centrifuged (2500×g, 10 min) to collect the nuclei, which in turn were homogenized in the same buffer containing 1 M (NH4)2SO4. After ultrasonic disruption and centrifugation, the concentration of (NH4)2SO4 in the collected supernatant was increased to 3.5 M to precipitate histone deacetylase. This precipitate was redissolved in HDA buffer, subjected to gel filtration to replace the solvent with HDA buffer, and used as a crude histone deacetylase enzyme solution.
As a substrate, a synthetic substrate peptide, [^3H]acetylated histone H4 peptide was used. This [^3H]acetylated histone H4 peptide was obtained by synthesizing the N-terminal peptide of histone H4; […] (the C-terminal being cysteine) and radio-acetylating with ^3H -acetic anhydride.
An assay was performed by incubating the synthetic substrate solution and the enzyme solution at 37° C. for 3 hours in the presence of a compound to be tested (reaction volume, 100 μl). The reaction was stopped by adding 25 μl of 1 M HCl and 0.2 M acetic acid and [^3H]acetate excised by the enzyme reaction was extracted with ethyl acetate for radioactivity measurement. As a control group, the same procedure was repeated without addition of any test compound to the reaction system. The inhibiting activity was expressed by a concentration at which the histone deacetylase enzyme activity in the control group was inhibited by 50% (50% inhibiting concentration).

[5] = system: B16/BL6 cells; assay: Inhibitory effect on cell proliferation (MTS, 48 hours); assay type: cell-based, mouse; settings: 48 hours after addition; read-out: 50% inhibiting concentration
Text: as §1, §2, §3

[6] = system: mouse malignant melanoma B16/BL6 cell line; assay type: cell-based; settings: 72 hours; read-out: 50% proliferation inhibiting concentration B16/BL6 (nM) mean
Text: as §1
as §2, with “Then, 10 μl of a solution of the source solution of a compound to be tested which has been diluted to a predetermined amount per well is added.” left out
as §3, with “investigated.” for “investigated. From the results, a concentration of addition at which the amount of cell proliferation was inhibited by 50% relative to the amount of cell proliferation in the control group without addition was determined.”
as §4

[7] = system: colon cancer Colon26 cell line; assay: Cell proliferation inhibition (72 hours); assay type: cell-based, mouse; settings: read-out: 50% proliferation inhibiting concentration Colon 26 (nM) mean
Text: as §1, §2, §3, §4, §5

[8] = system: leukemia L1210 cell line; assay: Cell proliferation inhibition (72 hours); assay type: cell-based, mouse; settings: read-out: 50% proliferation inhibiting concentration L1210 (nM) mean
Text: as §1, §2, §3, §4, §5

[9] = system: liver cancer MH134 cell line; assay: Cell proliferation inhibition (72 hours); assay type: cell-based, mouse; settings: read-out: 50% proliferation inhibiting concentration MH134 (nM) mean
Text: as §1, §2, §3, §4, §5

[10] = target: Mouse histone deacetylase; assay type: biochemical
Experimental: In an enzyme system using a radio-labelled acetylated histone as a substrate, histone deacetylase enzyme inhibiting activity was evaluated. The basic conditions were in accordance with the method of Yoshida et al. (J. Biol. Chem., 265, 17174-17179, 1990).
Mouse histone deacetylase to be used was partially purified from FM3A cells. Cells were suspended in HDA buffer (15 mM potassium phosphate, 5% glycerol, 0.2 mM EDTA, pH 7.5), homogenized and centrifuged (35000×g, 10 min) to collect the nuclei which in turn were homogenized in the same buffer containing 1 M (NH4)2SO4. After ultrasonic disruption and centrifugation, the concentration of (NH4)2SO4 in the supernatant was increased to 3.5 M to precipitate deacetylase enzyme proteins. This precipitate was redissolved in HDA buffer, dialyzed against HDA buffer, applied to DEAE-cellulose column and eluted in NaCl gradient. Active fractions were used as a histone deacetylase enzyme solution.
As a substrate, [^3H]acetyl histone was used. In a culture solution of FM3A cells in the presence of 5 mM sodium n-butyrate, [^3H]acetate was added, followed by incubation for 30 minutes to radio-label the histone. The histone was prepared in a conventional manner and used as a substrate solution.
An assay was performed by adding a compound to be tested at a given concentration while using a no-addition control group, and by incubating the substrate solution and the enzyme solution at 37° C. for 10 minutes (reaction volume, 100 μl). The enzyme reaction was stopped by adding 10 μl of concentrated hydrochloric acid and the excised [^3H]acetate was extracted with ethyl acetate for radioactivity measurement. The inhibiting activity was expressed by a concentration at which the enzyme activity in the control group was inhibited by 50% (50% inhibiting concentration).

| Structure (SMILES) | MHC class-I molecule expression promoting action [1] | MHC class-I molecule expression promoting activity ([1]; allowed to act on animal cells (summary statement)) | Twice Promoting Concentration Cx2 [1] | IC50 [2] | inhibitory effect on histone deacetylation [3] | IC50 [4] | IC50 [5] | IC50 [6] | IC50 [7] | IC50 [8] | IC50 [9] | conc. for 2-fold expression (nM) mean [1] | IC50 [10] |
| --- | --- | --- | --- | --- | --- | --- | --- | --- | --- | --- | --- | --- | --- |
| CC(/C=C/C(=O)NO)=C\[C@@H](C)C(=O)c1ccc(N(C)C)cc1 [Trichostatin A, trichostatin A, reference compound] | MHC class-I molecule expression promoting action was confirmed | promotes the expression of MHC class-I molecule | 3.35 nM | 621 nM | a total of 5 discrete bands are clearly seen in this region | 2.55 nM | 14.3 nM | 19.1 nM | 139 nM | 12.4 nM | 41.7 nM |  |  |
| O=C(CCCCC[C@@H]1NC(=O)[C@H]2CCCN2C(=O)[C@H](Cc2ccccc2)NC(=O)[C@H](Cc2ccccc2)NC1=O)NO [HDA-5, cyclo(-Asu(NHOH)-Phe-Phe-D-Pro-)] (cyclo([Asu](NHOH)FF[dP])) | exhibited MHC class-I molecule expression promoting action |  | 135 nM | 3370 nM | inhibits the deacetylation of histone | 6.03 nM | 210 nM | 257 nM | 2160 nM | 500 nM | 1660 nM | 98.2 nM | 2.18 nM |
| CC1(C)NC(=O)[C@H](CCCCCC(=O)NO)NC(=O)[C@H]2CCCN2C(=O)[C@H](Cc2ccccc2)NC1=O [HDA-15, cyclo(-Asu(NHOH)-Aib-Phe-D-Pro-)] (cyclo([Aib]F[dP][Asu](NHOH))) | exhibited MHC class-I molecule expression promoting action |  | 36.2 nM | 1230 nM |  |  | 92.5 nM | 110 nM | 908 nM | 193 nM | 946 nM | 33.2 nM |  |
